Where two headings read alike, the source gives them in different places.
Tests used:
[1] = system: subject's skin; experiment: In vivo photoprotection, clinical erythema evaluation after UVB irradiation; design: species or system human; details: Malassezin 1% formulation, one Skin Type IV subject
Excerpt: The Malassezin 1% formulation used in this study contained the following ingredients: Water (aqua)—65.939%; Dimethyl isosorbide—20.000%; Olive Oil Glycereth-8 Esters—3.000%; Glycerin—2.991%; Coconut Alkanes—2.700%; Hydroxyethyl Acrylate/Sodium Acryloyldimethyl Taurate Copolymer—1.700%; Malassezin—1.000%; Pentylene Glycol—1.000%; Phenoxyethanol—0.640%; Coco-Caprylate/Caprate—0.300%; Caprylyl Glycol—0.200%; Chlorphenesin—0.160%; Sorbitan Isostearate—0.140%; Tocopherol—0.100%; Polysorbate 60-0.080%; and Disodium EDTA—0.050%.
A Skin Type IV […] was included in this Proof of Concept study.
A template of 6 squares was placed on the lower left back (1.5 cm×1.5 cm) of the test subject.
Twenty-four hours after irradiation, the subject returned for MED assessment.
A second right lower square was treated twice daily from day 4 to day 7, and a third medial square for one application on day 7. The product vehicle was applied for 7 days twice daily on the left back. The subject returned to the research center for irradiation on day 7. Each test site was irradiated with 120 mJ of UVB exposure. The subject returned in 24 hours for assessment of phototoxicity/photoprotection.
The subject continued the experiment, receiving Malassezin 1% for a total of 14 days. […]

[2] = system: COL3A1 (Collagen, type III, alpha 1); experiment: Differential gene fold expression analysis of skin biopsies; assay type: in vivo, human; details: RNA, biopsy of treated vs untreated skin after 6 weeks of application, parentheses = not statistically significant, negative = decrease
Excerpt: (§1) Differential gene fold expression analysis was used to analyze Malassezin and compound AB17151. Biopsies from human subjects were taken after 6 weeks of application of compounds. Two participants applied AB17151 and one participant applied Malassezin. Biopsies were taken of treated skin and, as a control and for comparison, from untreated skin.
(§2) In the Table, numbers in parentheses indicate changes that are not statistically significant. All numbers indicate fold change in expression. Negative values indicate decreases in activity. A minus-3-fold change in activity, for example, means that the value changed by minus-3-fold, meaning it changed to ⅓ of its original value.

[3] = system: fine lines and wrinkles; experiment: Fine lines and wrinkles, dermatologist evaluation (Lemperle classification); assay type: in vivo, human; details: 11 subjects, 0.1%, 0.5% and 1.0% formulations pooled
Method: Malassezin formulations were evaluated for their effect on fine lines and wrinkles. In this study, human subjects with skin containing areas of hyperpigmentation were randomized to one of 3 groups. […] One mL of product (formulations detailed below) was applied to the face of subjects twice daily. Five minutes after the morning application, an SPF 50 sunscreen was applied to protect the treated areas from sun. Each subject had assessments at Baseline, 2, 4, 8, 14, 18 and 22 weeks. Treatment was ceased at 14 weeks. Week 18 and week 22 observations were to determine any return towards baseline.
Eleven subjects using the test ingredient completed week 14. […] An M.D. dermatologist with experience in evaluating fine lines and wrinkles performed evaluations on the subjects in this study and obtained the measurements tabulated below. Wrinkle assessment, classification, and evaluation were performed as described in G. Lemperle et al., A classification of facial wrinkles, Plast. Reconstr. Surg. 108: 1735 (2001), incorporated by reference herein in its entirety. For each subject, the percentage Malassezin formulation is indicated.

[4] = system: lines and wrinkles, skin texture, tone and firmness; experiment: Subject self-assessment questionnaire; assay type: in vivo, human; details: percentage of 11 subjects with a score of 6 or 5, formulations pooled
Method: Malassezin formulations were evaluated for their effect on fine lines and wrinkles. In this study, human subjects with skin containing areas of hyperpigmentation were randomized to one of 3 groups. Product use groups included Malassezin 0.05%, 0.1%, and 1.0%. One mL of product (formulations detailed below) was applied to the face of subjects twice daily. Five minutes after the morning application, an SPF 50 sunscreen was applied to protect the treated areas from sun. Each subject had assessments at Baseline, 2, 4, 8, 14, 18 and 22 weeks. Treatment was ceased at 14 weeks. Week 18 and week 22 observations were to determine any return towards baseline.
A subject self-assessment was completed at every visit. A total number of eleven (11) subjects were asked to respond to the questions regarding the improvement (if any) in their lines and wrinkles and related skin texture, tone, and firmness. Each answer was ranked from 6 to 1, with each having the meaning: 6—Strongly agree, 5—Agree, 4—Agree somewhat, 3—Disagree somewhat, 2—Disagree, and 1—Strongly disagree. The percentage of subjects answering with a score of 6 or 5 was calculated and is presented in the data below.

[5] = Adverse events recording; assay type: in vivo, human; details: all visits; Malassezin 0.1%, 0.5%, 1.0% formulations twice daily to the face
Method: Evaluation: Colorimetry measurements using the Mexameter MX 18 were used at Baseline, and Weeks 2, 4, 8, 14, 18, and 22. Clinical assessments of depigmentation was performed in the treated area. Assessments were performed at Baseline, and Weeks 2, 4, 8, 14, 18, and 22. Brightening assessments included brightening of normal skin and/or severity of dyschromia, if present (see scale). Global improvement was measured at the same time intervals. At all visits any adverse events (AE) was to be recorded including itching, burning, erythema, edema, dryness, scaling or skin peeling (see rating scales). […] Positive percentages indicate increased pigmentation, which indicates darkening. “Conc.” indicates the concentration of Malassezin in the formulation administered to the subject.

[6] = system: COL1A1 (Collagen, type 1, alpha 1); experiment: Differential gene fold expression analysis of skin biopsies; assay type: in vivo, human; details: RNA, biopsy of treated vs untreated skin after 6 weeks of application; participant; parentheses = not statistically significant; negative = decrease
Excerpt: as §1, §2

[7] = system: COL1A2 (Collagen, type 1, alpha 2); experiment: as above; assay type: in vivo, human; details: RNA, biopsy of treated vs untreated skin after 6 weeks of application, parentheses = not statistically significant, negative = decrease
Excerpt: as §1, §2

[8] = system: COL5A1 (Collagen, type V, alpha 1); experiment: as above; assay type: in vivo, human; details: RNA, biopsy of treated vs untreated skin after 6 weeks of application; participant; parentheses = not statistically significant; negative = decrease
Excerpt: as §1, §2

[9] = system: COL5A2 (Collagen, type V, alpha 2); experiment: as above; assay type: in vivo, human; details: RNA, biopsy of treated vs untreated skin after 6 weeks of application; participant; parentheses = not statistically significant; negative = decrease
Excerpt: as §1, §2

[10] = system: MMP7 (Matrix Metalloproteinase 7); experiment: as above; assay type: in vivo, human; details: RNA, biopsy of treated vs untreated skin after 6 weeks of application; participant one; parentheses = not statistically significant; negative = decrease
Excerpt: as §1, §2

[11] = system: PCOLCE2 (Pro-Collagen C endopeptidase enhancer 2); experiment: as above; assay type: in vivo, human; details: RNA, biopsy of treated vs untreated skin after 6 weeks of application, parentheses = not statistically significant, negative = decrease
Excerpt: as §1, §2

[12] = cited from earlier work; for sun protection factor (SPF): 290-400 nm
[13] = system: skin of healthy subjects; details: cited from earlier work

O=Cc1c(Cc2c[nH]c3ccccc23)[nH]c2ccccc12 [Malassezin]
UV-protective properties, conclusion of the Proof of Concept study [1]: UV-protective properties
COL3A1 fold change in expression ([2]; participant two): 1.7 fold change
Fine lines/wrinkles score, Average ([3]; Week 0 (baseline)): 2.55
Fine lines/wrinkles score, Average ([3]; Week 2, P-value 0.024 (Student's T test)): 1.82
Fine lines/wrinkles score, Average ([3]; Week 4, P-value 0.011 (Student's T test)): 1.73
Fine lines/wrinkles score, Average ([3]; Week 8, P-value 0.011 (Student's T test)): 1.73
Fine lines/wrinkles score, Average ([3]; Week 14, P-value 0.011 (Student's T test)): 1.73
Self-assessment: I have smoother skin texture ([4]; Week 2): 45.45%
Self-assessment: My Lines and wrinkles are less visible ([4]; Week 2): 36.36%
Self-assessment: My skin firmness has improved ([4]; Week 2): 36.36%
Self-assessment: My skin has a brighter tone ([4]; Week 2): 45.45%
Self-assessment: My skin looks more youthful and healthy ([4]; Week 2): 45.45%
Self-assessment: My skin texture is less coarse ([4]; Week 2): 54.55%
Self-assessment: Overall skin texture is improved ([4]; Week 2): 54.55%
Self-assessment: Overall skin tone is improved ([4]; Week 2): 54.55%
Self-assessment: I have smoother skin texture ([4]; Week 4): 63.64%
Self-assessment: My Lines and wrinkles are less visible ([4]; Week 4): 54.55%
Self-assessment: My skin firmness has improved ([4]; Week 4): 63.64%
Self-assessment: My skin has a brighter tone ([4]; Week 4): 63.64%
Self-assessment: My skin looks more youthful and healthy ([4]; Week 4): 63.64%
Self-assessment: My skin texture is less coarse ([4]; Week 4): 63.64%
Self-assessment: Overall skin texture is improved ([4]; Week 4): 63.64%
Self-assessment: Overall skin tone is improved ([4]; Week 4): 63.64%
Self-assessment: I have smoother skin texture ([4]; Week 8): 81.82%
Self-assessment: My Lines and wrinkles are less visible ([4]; Week 8): 63.64%
Self-assessment: My skin firmness has improved ([4]; Week 8): 63.64%
Self-assessment: My skin has a brighter tone ([4]; Week 8): 72.73%
Self-assessment: My skin looks more youthful and healthy ([4]; Week 8): 81.82%
Self-assessment: My skin texture is less coarse ([4]; Week 8): 72.73%
Self-assessment: Overall skin texture is improved ([4]; Week 8): 81.82%
Self-assessment: Overall skin tone is improved ([4]; Week 8): 72.73%
Self-assessment: I have smoother skin texture ([4]; Week 14): 90.91%
Self-assessment: My Lines and wrinkles are less visible ([4]; Week 14): 90.91%
Self-assessment: My skin firmness has improved ([4]; Week 14): 72.73%
Self-assessment: My skin has a brighter tone ([4]; Week 14): 81.82%
Self-assessment: My skin looks more youthful and healthy ([4]; Week 14): 72.73%
Self-assessment: My skin texture is less coarse ([4]; Week 14): 100.00%
Self-assessment: Overall skin texture is improved ([4]; Week 14): 90.91%
Self-assessment: Overall skin tone is improved ([4]; Week 14): 81.82%
adverse events (itching, burning, erythema, edema, dryness, scaling or skin peeling) [5]: No AEs were recorded

COC(=O)c1c(C(c2c[nH]c3ccccc23)C2CC2)[nH]c2ccccc12 (centres unmarked) [AB17151]
COL1A1 fold change in expression [6]: 5.61 fold change
COL1A2 fold change in expression ([7]; participant one): 1.99 fold change
COL1A2 fold change in expression ([7]; participant): 6.97 fold change
COL3A1 fold change in expression ([2]; participant one): 2.59 fold change
COL3A1 fold change in expression ([2]; participant): 6.26 fold change
COL5A1 fold change in expression [8]: 6.1 fold change
COL5A2 fold change in expression [9]: 2.23 fold change
MMP7 fold change in expression [10]: 1.79 fold change
PCOLCE2 fold change in expression ([11]; participant one): 1.57 fold change
PCOLCE2 fold change in expression ([11]; participant): 1.5 fold change

O=C(c1c[nH]c2ccccc12)c1nccc2c1[nH]c1ccccc12 [pityriacitrin, Pityriacitrin]
sun protection factor (SPF) ([12]; pityriacitrin concentration 1.25% in cream): 1.4
sun protection factor (SPF) ([12]; pityriacitrin concentration 2.5% in cream): 1.5
sun protection factor (SPF) ([12]; pityriacitrin concentration 5% in cream): 1.7
UVB and UVA transmission ([12]; pityriacitrin cream formulations): decreased with increasing pityriacitrin concentrations
UV protective effect, overall ([13]; in vitro and in vivo test methods): very weak
in vivo confirmation of the SPF determined in vitro ([13]; pityriacitrin 5% cream): confirmed the validity of the SPF
